Experimental findings from patent US11697639B2, “Quaternary ammonium salt compound, preparation method therefor and use thereof” (WEST CHINA HOSPITAL, SICHUAN UNIVERSITY, priority 2018, dated 2023) are described below.

Common to all, as to assay type: in vivo
Assay [1] has as its system rat's sciatic nerve. In words: Rat sciatic nerve block, motor function by Postural Extensor Thrust (PET). The following applies: 0.5 mL injected near sciatic nerve, test drugs 20 mmol/mL in distilled water, lidocaine 2%, levobupivacaine 0.75%. As for the experimental part: (§1) For the dosage, the lidocaine group is 2% aqueous solution, the levobupivacaine group is 0.75% aqueous solution, and test drug groups are all distilled water solution at the concentration of 20 mmol/mL.
(§2) The injection volume for each rat or the control was 0.5 mL, which was guided by a nerve locator and injected near the rat's sciatic nerve. Using von Frey stimulator, the rats were stimulated the soles of the feet in the injected side, to observe the effect of local anesthesia. Meanwhile, Postural Extensor Thrust (PET) was used to evaluate the motor function of the rat: the rat was lifted vertically and the hindlimb in the injected side pedaled on the platform of the electronic balance. […] When the limb was completely paralyzed, the reading was the limb's own weight, about 20 g. If the measured value was more than half of the difference between the baseline and the limb weight, the motor function was regarded as recovery, and if the value was less than or equal to this difference, the motor function was regarded as loss.

The test system of assay [2] is back skin of rat. Nature of the assay: Local anesthetic effect by subcutaneous infiltration in rat back skin (Von Frey 100 g). The following applies: 0.5 mL in saline, compound 6 mmol/L, bupivacaine 23 mmol/L, 10 rats per compound. As for the experimental part:
After the back of rat weighing 250-300 g was shaved and disinfected, a circle with a diameter of about 1.5 cm was drawn on the side of the exposed back, and the circle is divided into 6 equal parts. […] Among the Von Frey fiber yarns, the one with a strength of 100 g was bound to the needle for local skin stimulation. One minute After the drug was injected, the above method was used to stimulate in 6 divisions. […] If back skin contraction was observed, the local anesthetic effect was considered as loss. […] Each compound was tested with 10 rats.

For assay [3], the system named is rat's sciatic nerve. In words: Rat sciatic nerve block, sensory block tested with von Frey stimulator. The note with it: 0.5 mL injected near sciatic nerve, test drugs 20 mmol/mL in distilled water, lidocaine 2%, levobupivacaine 0.75%; for Local anesthesia onset time (Median): 8 rats per group; for Time of sensory block (Median): von Frey. As for the experimental part: as §1, §2

Where a name gives a salt, the structure may show the parent alone.

For `CCC[N+](C)(CCCCCN1CCCCC1C(=O)Nc1c(C)ccc(C#N)c1C)CC(=O)Nc1c(C)cccc1C` (centres unmarked) [example 8], the “Time of motor block (Median)” value in assay [1] is listed as 18 h. Moreover, in assay [2], the “Lasting time of local anesthesia (Median)” value (“Lasting time” for short) is 33 h and the “Local anesthesia onset time (Median)” value is recorded as 1 min. Besides, in assay [3], the “Local anesthesia onset time (Median)” value came out at 1 min and the “Time of sensory block (Median)” value is 24 h.

In the case of `CCC[N+](CC)(CCCCCCCN1CCCC[C@@H]1C(=O)Nc1c(C)ccc(C(=O)O)c1C)CC(=O)Nc1c(C)ccc(OC)c1C.[Br-]` (some centres unmarked) [example 28], in assay [1], the “Time of motor block (Median)” value was 18 h. For the same compound, in assay [3], the “Local anesthesia onset time (Median)” value is reported as 4 min and the “Time of sensory block (Median)” value was 26 h.

Take `CCC[N+](CC)(CCCCCCCN1CCC(OC)C[C@@H]1C(=O)Nc1c(C)cccc1C)CC(=O)Nc1c(C)cccc1C.[Br-]` (some centres unmarked) [example 22]: the “Time of motor block (Median)” value in assay [1] was 18 h. In assay [3], the “Local anesthesia onset time (Median)” value came to 3 min and the “Time of sensory block (Median)” value was 29 h.

For `CCC[N+](CC)(CCCCCCCCN1CCCCC1C(=O)Nc1c(C)cccc1C)CC(=O)Nc1c(C)ccc(Br)c1C` (centres unmarked) [example 4], the “Time of motor block (Median)” value in assay [1] came out at 10 h. In assay [2], the “Lasting time” value was determined as 44 h and the “Local anesthesia onset time (Median)” value was 2 min. Moreover, in assay [3], the “Local anesthesia onset time (Median)” value is 1 min and the “Time of sensory block (Median)” value was found to be 33 h.

For the compound `CCC[N+](CC)(CCCCCN1CCCCC1C(=O)Nc1c(C)cccc1C)CC(=O)Nc1c(C)cc([N+](=O)[O-])cc1C` (centres unmarked) [example 3], the “Time of motor block (Median)” value in assay [1] is recorded as 10 h. Besides, in assay [2], the “Lasting time” value came to 37 h and the “Local anesthesia onset time (Median)” value turned out to be 1 min. Besides, in assay [3], the “Local anesthesia onset time (Median)” value was found to be 1 min and the “Time of sensory block (Median)” value turned out to be 27 h.

Turning to `CCC[N+](CC)(CCCCCCCCN1CCCC1C(=O)Nc1c(C)ccc(C#N)c1C)CC(=O)Nc1c(C)ccc(C(=O)OC)c1C.[Br-]` (centres unmarked) [example 26], in assay [1], the “Time of motor block (Median)” value is recorded as 18 h. In assay [3], the “Local anesthesia onset time (Median)” value turned out to be 3 min and the “Time of sensory block (Median)” value turned out to be 25 h.

Regarding `CC[N+](C)(CCCN(C)CC(=O)Nc1c(C)cccc1C)CC(=O)Nc1c(C)cccc1C` (centres unmarked) [example 9], the “Time of motor block (Median)” value in assay [1] is listed as 10 h. Besides, in assay [2], the “Lasting time” value came to 28 h and the “Local anesthesia onset time (Median)” value is on record as 2 min. Also, in assay [3], the “Local anesthesia onset time (Median)” value amounted to 5 min and the “Time of sensory block (Median)” value was 24 h.

In the case of `CCCC[N+](CC)(CCCCCCN1CCCCC1C(=O)Nc1c(C)cc([N+](=O)[O-])cc1C)CC(=O)Nc1c(C)cc(C(=O)O)cc1C.[Br-]` (centres unmarked) [example 27], in assay [1], the “Time of motor block (Median)” value is listed as 22 h. In addition, in assay [3], the “Local anesthesia onset time (Median)” value is on record as 2 min and the “Time of sensory block (Median)” value was found to be 28 h.

As to `CC[N+](C)(CCCN1CCCC[C@@H]1C(=O)Nc1c(C)cccc1C)CC(=O)Nc1c(C)cccc1C` (some centres unmarked) [example 16], the “Time of motor block (Median)” value in assay [1] is 19 h. In assay [3], the “Local anesthesia onset time (Median)” value was found to be 1 min and the “Time of sensory block (Median)” value turned out to be 25 h.

As for `CCC[N+](CC)(CCCCCCCN1CCCCC1C(=O)Nc1c(C)ccc(Cl)c1C)CC(=O)Nc1c(C)ccc(C#N)c1C.[Br-]` (centres unmarked) [example 24], the “Time of motor block (Median)” value in assay [1] was determined as 16 h. In addition, in assay [3], the “Local anesthesia onset time (Median)” value is recorded as 1 min and the “Time of sensory block (Median)” value is 24 h.

For the compound `CCC[N+](CC)(CCCCCCCCN1CCCC[C@H]1C(=O)Nc1c(C)cccc1C)CC(=O)Nc1c(C)cccc1C.[Br-]` (some centres unmarked) [example 19], the “Time of motor block (Median)” value in assay [1] worked out at 22 h. Besides, in assay [3], the “Local anesthesia onset time (Median)” value was 1 min and the “Time of sensory block (Median)” value turned out to be 29 h.

On to `CCC[N+](CC)(CCCCCCCCN1CCCCC1C(=O)Nc1c(C)cccc1C)CC(=O)Nc1c(C)cccc1C.[Br-]` (centres unmarked) [example 17], for which, in assay [1], the “Time of motor block (Median)” value worked out at 17 h. Moreover, in assay [3], the “Local anesthesia onset time (Median)” value was 5 min and the “Time of sensory block (Median)” value is reported as 24 h.

Turning to `CCCCN(C(=O)[C@@H]1CCCCN1CCCCCCC[N+](CC)(CCC)CC(=O)Nc1c(C)cccc1C)c1c(C)cccc1C.[Br-]` (some centres unmarked) [example 23], in assay [1], the “Time of motor block (Median)” value came to 28 h. Besides, in assay [3], the “Local anesthesia onset time (Median)” value is given as 2 min and the “Time of sensory block (Median)” value worked out at 35 h.

For the compound `CCC[N+](CC)(CCCCN1C(C)CCCC1C(=O)Nc1c(C)cccc1C(C)C)CC(=O)Nc1c(C)cccc1C(C)C.[Br-]` (centres unmarked) [example 20], the “Time of motor block (Median)” value in assay [1] was 20 h. In assay [3], the “Local anesthesia onset time (Median)” value came to 2 min and the “Time of sensory block (Median)” value is 25 h.

`CCC[N+](CC)(CCCN1CCCC[C@@H]1C(=O)Nc1c(C)ccc(C(=O)OC)c1C)CC(=O)Nc1c(C)ccc(N)c1C.O=C(O)C(O)C(O)C(=O)O.[Br-]` (some centres unmarked) [example 30]: the “Time of motor block (Median)” value in assay [1] is given as 19 h. Also, in assay [3], the “Local anesthesia onset time (Median)” value is 4 min and the “Time of sensory block (Median)” value amounted to 28 h.

As to `CC[N+](C)(CCCN1CCCCC1C(=O)Nc1c(C)cccc1C)CC(=O)Nc1c(C)cccc1C.O=C(O)c1ccccc1.[Br-]` (centres unmarked) [example 14], the “Time of motor block (Median)” value in assay [1] was 18 h. In addition, in assay [3], the “Local anesthesia onset time (Median)” value was determined as 3 min and the “Time of sensory block (Median)” value is recorded as 32 h.

With `CCC[N+](CC)(CCCCCCCCN1CCCC[C@@H]1C(=O)Nc1c(C)cccc1C)CC(=O)Nc1c(C)cccc1C.O=C(O)CC(O)(CC(=O)O)C(=O)O.[Br-]` (some centres unmarked) [example 25], the “Time of motor block (Median)” value in assay [1] is listed as 24 h. Further, in assay [3], the “Local anesthesia onset time (Median)” value came out at 5 min and the “Time of sensory block (Median)” value amounted to 32 h.

As to `CC[N+](C)(CCCN1CCCCC1C(=O)Nc1c(C)cccc1C)CC(=O)Nc1c(C)cccc1C` (centres unmarked) [example 1], the “Time of motor block (Median)” value in assay [1] was determined as 18 h. Also, in assay [2], the “Lasting time” value was 34 h and the “Local anesthesia onset time (Median)” value worked out at 1 min. In assay [3], the “Local anesthesia onset time (Median)” value was determined as 3 min and the “Time of sensory block (Median)” value was determined as 24 h.

For `CCCC[N+](CC)(CCOCCN1CCCCC1C(=O)Nc1c(C)cccc1C)CC(=O)Nc1c(C)cccc1O` (centres unmarked) [example 5], the “Time of motor block (Median)” value in assay [1] was 11 h. Besides, in assay [2], the “Lasting time” value is reported as 68 h and the “Local anesthesia onset time (Median)” value was 1 min. In addition, in assay [3], the “Local anesthesia onset time (Median)” value is recorded as 6 min and the “Time of sensory block (Median)” value turned out to be 28 h.

Take `CCCCN1CCCC[C@H]1C(=O)Nc1c(C)cccc1C` [Levobupivacaine Hydrochloride, reference compound]: in assay [1], the “Time of motor block (Median)” value is reported as 2.5 h. Moreover, in assay [2], the “Lasting time” value stood at 7 h and the “Local anesthesia onset time (Median)” value is 1 min. In assay [3], the “Local anesthesia onset time (Median)” value is 1 min and the “Time of sensory block (Median)” value stood at 2.5 h.

`CCC[N+](CC)(CCCCCCCCN1CCCCC1C(=O)Nc1c(C)cccc1C)CC(=O)Nc1c(C)cccc1OC` (centres unmarked) [example 7]: in assay [1], the “Time of motor block (Median)” value came to 10 h. In addition, in assay [2], the “Lasting time” value amounted to 57 h and the “Local anesthesia onset time (Median)” value came to 1 min. Also, in assay [3], the “Local anesthesia onset time (Median)” value amounted to 2 min and the “Time of sensory block (Median)” value is given as 28 h.

Take `CC[N+](C)(CCCN1CCCCC1C(=O)Nc1c(C)cccc1C)CC(=O)Nc1c(C)ccc(Cl)c1C` (centres unmarked) [example 6]: in assay [1], the “Time of motor block (Median)” value is recorded as 19 h. Also, in assay [2], the “Lasting time” value came out at 47 h and the “Local anesthesia onset time (Median)” value was 1 min. For the same compound, in assay [3], the “Local anesthesia onset time (Median)” value was 3 min and the “Time of sensory block (Median)” value was 30 h.

On to `CCC[N+](CC)(CCCCCCCCN1CCCCC1C(=O)Nc1c(C)cc(OC)cc1C)CC(=O)Nc1c(C)ccc([N+](=O)[O-])c1C.[Br-]` (centres unmarked) [example 29], for which the “Time of motor block (Median)” value in assay [1] is recorded as 28 h. In assay [3], the “Local anesthesia onset time (Median)” value is 1 min and the “Time of sensory block (Median)” value was determined as 33 h.

As for `CCC[N+](C)(CCCCCN1CCCCC1C(=O)Nc1c(C)cc(C)cc1C)CC(=O)Nc1c(C)cc(C#N)cc1C` (centres unmarked) [example 13], in assay [1], the “Time of motor block (Median)” value worked out at 17 h. In addition, in assay [2], the “Lasting time” value is 45 h and the “Local anesthesia onset time (Median)” value stood at 1 min. In assay [3], the “Local anesthesia onset time (Median)” value worked out at 1 min and the “Time of sensory block (Median)” value is on record as 25 h.

Turning to `CCC[N+](CC)(CCCCCCCCN1CCCCC1C(=O)Nc1c(C)cccc1C)CC(=O)Nc1c(C)cccc1C.[Br-]` (centres unmarked) [example 21], the “Time of motor block (Median)” value in assay [1] is on record as 18 h. In addition, in assay [3], the “Local anesthesia onset time (Median)” value is 1 min and the “Time of sensory block (Median)” value is recorded as 24 h.

For `Br.CCC[N+](CC)(CCCN1CCCCC1C(=O)Nc1c(C)ccc(S)c1C)CC(=O)Nc1c(C)cc(O)cc1C.[Br-]` (centres unmarked) [example 18], the “Time of motor block (Median)” value in assay [1] stood at 21 h. Moreover, in assay [3], the “Local anesthesia onset time (Median)” value is given as 1 min and the “Time of sensory block (Median)” value is reported as 31 h.

With `CCC[N+](CC)(CCCCCCCCN1CCCCC1C(=O)Nc1c(C)cccc1C)CC(=O)Nc1c(C)cccc1C.Cl.[Br-]` (centres unmarked) [example 15], the “Time of motor block (Median)” value in assay [1] was 25 h. In assay [3], the “Local anesthesia onset time (Median)” value amounted to 2 min and the “Time of sensory block (Median)” value is reported as 38 h.
